# Biological target: T1, hMGL (Homo sapiens, UniProt Q99685)
# T1 construct: A full-length cDNA clone of the human MGL transcript variant 1; made in house; host or cells: E. coli BL21 (DE3)
# T1 sequence (Q99685 2-303 limits assumed): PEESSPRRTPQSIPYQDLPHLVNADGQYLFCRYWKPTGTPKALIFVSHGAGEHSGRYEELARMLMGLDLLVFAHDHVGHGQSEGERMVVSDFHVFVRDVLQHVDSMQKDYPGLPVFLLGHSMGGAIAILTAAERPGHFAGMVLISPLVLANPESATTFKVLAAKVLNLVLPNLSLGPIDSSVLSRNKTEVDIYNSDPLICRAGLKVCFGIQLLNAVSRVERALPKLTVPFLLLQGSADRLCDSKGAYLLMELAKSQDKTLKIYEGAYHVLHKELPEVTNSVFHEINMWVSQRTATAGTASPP
# Test: Fluorescent enzyme assay, MGL (AHMMCE hydrolysis)
# Format: biochemical
# Details: 10 nM inhibitor; AHMMCE substrate; screening assay; read-out: % Inhibition of Enzyme by inhibitor, MGL, 10 nM
# Method: (§1) Some analogs were tested for their FAAH/MGL inhibitory activity, which is expressed as % of inhibition (Tables 2, 3, and 4 below). The percentage of inhibition results from three-point assay (three concentrations of inhibitor are used) and it is less accurate (preliminary screening) than the IC50/Ki values that are determined from eight-point assay (eight different concentrations of inhibitor were used). The percentage of inhibition describes the percentage by which the inhibitor reduces the velocity/rate of AAMCA (arachidonoyl-7-amino-4-methylcoumarin amide) or AHMMCE (arachidonoyl-7-hydroxy-6-methoxy-4-methylcoumarin ester) hydrolysis by FAAH or MGL respectively. The IC50 is the concentration of the inhibitor, which results in 50% inhibition of the velocity/rate of AAMCA (arachidonoyl 7-amino-4-methylcoumarin amide) hydrolysis by FAAH or AHMMCE (Arachidonoyl, 7-hydroxy-6-methoxy-4-methylcoumarin ester) hydrolysis by MGL. The Ki value is the affinity constant and describes the ability of the compounds to inhibit the function of FAAH or MGL. The lower the IC50/Ki values, the higher the affinity of the inhibitor for the enzyme and the higher its inhibitory activity. A detailed description of the methods used to test inhibitory activity of compounds is given below.
# A full-length cDNA clone of the human MGL transcript variant 1 (gi: 51242951) was obtained from OriGene Technologies (Rockville, Md.). The coding part of the MGL sequence (except the translation initiation codon ATG) was amplified by a polymerase chain reaction (PCR) using forward […] and reverse […] primers containing PmlI and SacI restriction enzyme recognition sites, respectively. iProof high-fidelity DNA polymerase (Bio-Rad, Hercules, Calif.) was used in the PCR amplification with 33 cycles, each consisting of denaturation at 94° C. for 10 s, annealing at 55° C. for 33 s, and extension at 72° C. for 1 min. The PCR product and pET45b vector were digested with PmlI and SacI restriction enzymes, and the vector was dephosphorylated with CIP followed by in-gel purification using the MinElute Gel Extraction Kit (Qiagen Corp., Valencia, Calif.). The fragment was inserted into the vector directly downstream after the 6 histidine and valine codons, generating the construct pET45His6hMGL for expression of hMGL containing an N-terminal His6-tag. GC10 E. coli cells were used for DNA transformation and plasmid propagation. Mini- and midi-scale plasmid DNA preparations were performed using a GenElute Plasmid Miniprep Kit (Sigma) and PureYield Plasmid Midiprep System (Promega, Madison, Wis.), respectively. In-frame vector-fragment junctions and the coding sequence of the recombinant gene were confirmed by sequencing. The pET45His6hMGL construct was transformed into BL21 (DE3) and Origami (DE3) E. coli expression strains (Novagen, Madison, Wis.).
# A single E. coli BL21 (DE3) colony containing the pET45His6hMGL plasmid was inoculated into 12 mL of Luria broth-ampicillin medium and grown overnight with shaking (250 rpm) at 37° C. The next morning, 10 mL of this culture was inoculated into 1 L of fresh Luria broth-ampicillin and allowed to grow until culture turbidity reached an (OD)600 of 0.6-0.8, at which time expression from the T7 promoter was induced by adding isopropyl-β-D-thio-galactopyranoside (1 mM). After 5 h induction, the cells were harvested by centrifugation at 5,000 g for 10 min at 4° C., washed with PBS, and held at −80° C. Five grams (wet-weight) of cells were resuspended in 50 mL lysis buffer (100 mM NaCl; 50 mM Tris, pH 8.0) supplemented with Triton X-100 (0.5%), lysozyme (0.2 mg/mL), and DNase I (25 μg/ml) and disrupted on ice by three, one-min sonication cycles, each consisting of 1-sec sonication bursts at 50 W power separated from each other by a 2-sec interval (Vibra-Cell 500 W, Sonics, Newtown, Conn.). The cell lysate was centrifuged at 10,000 g for 30 min at 4° C. […]
row,Structure (SMILES),inhibition at 0.01 µM [%]
1,"CN(C)C(=O)n1nnc(Cc2ccc(C(F)(F)F)cc2)n1 [Compound 20a, N,N-dimethyl-5-[4-(trifluoromethyl)benzyl]-2H-tetrazole-2-carboxamide]",98
2,CN(C(=O)n1nnnc1Cc1ccc(Cl)cc1Cl)c1ccccc1 [Compound 7b],8
3,CN(C)C(=O)n1nnnc1Cc1ccc([N+](=O)[O-])cc1 [Compound 22b],22
4,"CN(C)C(=O)n1nnc(Cc2ccc(Br)cc2)n1 [Compound 16a, 5-(4-bromobenzyl)-N,N-dimethyl-2H-tetrazole-2-carboxamide]",98
5,CN(C)C(=O)n1nnnc1Cc1ccc(C(F)(F)F)cc1 [Compound 20b],6
6,"CCN(CC)C(=O)n1nnc(Cc2ccc(Cl)cc2Cl)n1 [Compound 9, 5-(2,4-dichlorobenzyl)-N,N-diethyl-tetrazole-2-carboxamide]",43
7,"CN(C)C(=O)n1nnc(Cc2ccc(Cl)cc2Cl)n1 [Compound 17a, 5-(2,4-dichlorobenzyl)-N,N-dimethyl-2H-tetrazole-2-carboxamide]",99
8,CN(C)C(=O)n1nnnc1Cc1ccc(Cl)cc1 [Compound 21b],54
9,"Cc1ccc(Cc2nnn(C(=O)N(C)C)n2)cc1 [Compound 26a, N,N-dimethyl-5-(4-methylbenzyl)-2H-tetrazole-2-carboxamide]",96
10,"CN(C)C(=O)n1nnnc1Cc1ccccc1 [Compound 35, 5-benzyl-N,N-dimethyl-1H-tetrazole-1-carboxamide]",41
11,CN(C)C(=O)n1nnc(Cc2ccc(Cl)cc2)n1 [Compound 21a],97
12,CN(C)C(=O)n1nnnc1Cc1ccc(I)cc1 [Compound 18b],64
13,"CN(C)C(=O)n1nnc(Cc2ccccc2)n1 [Compound 34, 5-benzyl-N,N-dimethyl-2H-tetrazole-2-carboxamide]",100

# Same assay, conditions: 1000 nM inhibitor; AHMMCE substrate; screening assay
row,Structure (SMILES),inhibition at 1 µM [%]
1,CC(=O)Nc1ccc(Cc2nnnn2C(=O)N(C)C)cc1 [Compound 25b],90
2,"CN(CCCCN=[N+]=[N-])C(=O)n1cnc(-c2ccccc2)c1 [Compound 48, N-(4-azidobutyl)-N-methyl-4-phenyl-1H-imidazole-1-carboxamide]",14
3,CC(=O)Nc1ccc(Cc2nnn(C(=O)N(C)C)n2)cc1 [Compound 25a],99
4,"CN(C)C(=O)n1nnc(Cc2ccncc2)n1 [Compound 39, N,N-dimethyl-5-(pyridin-4-ylmethyl)-2H-tetrazole-2-carboxamide]",40
5,"CN(CCCCN=C=S)C(=O)n1cnc(-c2ccccc2)c1 [Compound 49, N-(4-isothiocyanatobutyl)-N-methyl-4-phenyl-1H-imidazole-1-carboxamide]",7
6,O=C(N1CCC2(CC1)OCCO2)n1nnc(Cc2ccc(Cl)cc2Cl)n1 [Compound 14],52
7,"CN(C)C(=O)n1cc(Cc2ccccc2)nn1 [Compound 70, 4-benzyl-N,N-dimethyl-1,2,3-triazole-1-carboxamide]",99

# Same assay, conditions: read-out: % Inhibition of Enzyme by inhibitor, MGL, 10 nM
row,Structure (SMILES),inhibition at 0.01 µM [%]
1,"CN(C)C(=O)Oc1ccc(Cc2nnn(C(=O)N(C)C)n2)cc1 [Compound 36a, 4((2-(dimethylcarbamoyl)-2H-tetrazol-5-yl)methyl)phenyl dimethylcarbamate]",92

# Biological target: T2, ΔTM rFAAH (Rattus norvegicus, UniProt P97612)
# T2 construct: 15 ug of ΔTM rFAAH (cell lysate obtained by recombinant procedure); made in house
# T2 sequence (P97612 30-579 limits assumed): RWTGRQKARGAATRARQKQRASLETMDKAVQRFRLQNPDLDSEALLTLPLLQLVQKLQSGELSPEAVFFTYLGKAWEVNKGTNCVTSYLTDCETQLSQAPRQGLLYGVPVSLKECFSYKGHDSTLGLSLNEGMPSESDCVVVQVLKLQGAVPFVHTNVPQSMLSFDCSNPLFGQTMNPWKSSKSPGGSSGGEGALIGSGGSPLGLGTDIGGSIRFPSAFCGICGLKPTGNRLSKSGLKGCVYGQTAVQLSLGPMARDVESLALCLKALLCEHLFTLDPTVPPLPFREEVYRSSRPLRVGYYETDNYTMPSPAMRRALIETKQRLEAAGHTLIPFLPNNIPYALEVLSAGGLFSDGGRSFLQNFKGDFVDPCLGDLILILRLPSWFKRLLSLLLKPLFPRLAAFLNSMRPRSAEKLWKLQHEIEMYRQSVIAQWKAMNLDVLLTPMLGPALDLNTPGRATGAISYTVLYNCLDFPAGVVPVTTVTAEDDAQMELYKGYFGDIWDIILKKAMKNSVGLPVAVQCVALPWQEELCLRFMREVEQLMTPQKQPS
# Test: Fluorescent enzyme assay, FAAH (AAMCA hydrolysis)
# Format: biochemical
# Details: 10 nM inhibitor; AAMCA substrate; screening assay
# Method: as §1
# The enzyme (FAAH and MGL) assays were performed in 96 well plates (Coster #3650) in a total volume of 200 uL. Fluorogenic substrate AAMCA (arachidonoyl 7-amino-4-methylcoumarin amide) for FAAH and AHMMCE (arachidonoyl 7-hydroxy-6-methoxy-4-methylcoumarin ester) for MGL were used using BioTek Synergy HT Microplate Reader. Compounds and substrates were dissolved in DMSO provide a 10 mM stock solution and kept as a stock solution at −20° C. until used for assay. Stock solutions were thawed and reconstituted in 50:50 DMSO/assay buffer to a final DMSO concentration per well below 8%. This ensures that the compounds and substrate are in solution during assay. […] Appropriate substrate was added to adjust the final concentration in each well to 20 uM for FAAH (2× Km) and 10 uM for MGL (1×KM). Fluorescence readings were performed at λex=360/λem=460 for 4 h using Kinetic assay protocol at every 20 min (the fluorescent product coumarin produced is quantitated by this procedure). The readings at 3 h for FAAH and 2 h for MGL (linear maximum hydrolysis kinetics of enzyme on substrate) were used to calculate percent inhibition based on controls. Compounds which had more than 50 percent inhibition at 10 uM were selected for dose response study to determine IC50 values. The dose response at 8 concentration points was performed as with the screening assay except that compounds were serially diluted to 8 concentration points which were chosen based on IC50 value, which were calculated from the screening assay results. Assays are run twice in triplicates and Graphpad Prism software is used to plot inhibition data to obtain IC50 values.
row,Structure (SMILES),inhibition at 0.01 µM [%]
1,"CN(C)C(=O)n1nnc(Cc2ccc(C(F)(F)F)cc2)n1 [Compound 20a, N,N-dimethyl-5-[4-(trifluoromethyl)benzyl]-2H-tetrazole-2-carboxamide]",93
2,CN(C(=O)n1nnnc1Cc1ccc(Cl)cc1Cl)c1ccccc1 [Compound 7b],89
3,CN(C)C(=O)n1nnnc1Cc1ccc([N+](=O)[O-])cc1 [Compound 22b],85
4,"CN(C)C(=O)n1nnc(Cc2ccc(Br)cc2)n1 [Compound 16a, 5-(4-bromobenzyl)-N,N-dimethyl-2H-tetrazole-2-carboxamide]",92
5,CN(C)C(=O)n1nnnc1Cc1ccc(C(F)(F)F)cc1 [Compound 20b],90
6,"CN(CCCCN=[N+]=[N-])C(=O)n1cnc(-c2ccccc2)c1 [Compound 48, N-(4-azidobutyl)-N-methyl-4-phenyl-1H-imidazole-1-carboxamide]",8
7,"CCN(CC)C(=O)n1nnc(Cc2ccc(Cl)cc2Cl)n1 [Compound 9, 5-(2,4-dichlorobenzyl)-N,N-diethyl-tetrazole-2-carboxamide]",95
8,"CN(C)C(=O)n1nnc(Cc2ccc(Cl)cc2Cl)n1 [Compound 17a, 5-(2,4-dichlorobenzyl)-N,N-dimethyl-2H-tetrazole-2-carboxamide]",93
9,CN(C)C(=O)n1nnnc1Cc1ccc(Cl)cc1 [Compound 21b],93
10,"CN(C)C(=O)Oc1ccc(Cc2nnn(C(=O)N(C)C)n2)cc1 [Compound 36a, 4((2-(dimethylcarbamoyl)-2H-tetrazol-5-yl)methyl)phenyl dimethylcarbamate]",80
11,"Cc1ccc(Cc2nnn(C(=O)N(C)C)n2)cc1 [Compound 26a, N,N-dimethyl-5-(4-methylbenzyl)-2H-tetrazole-2-carboxamide]",93
12,"CN(C)C(=O)n1nnnc1Cc1ccccc1 [Compound 35, 5-benzyl-N,N-dimethyl-1H-tetrazole-1-carboxamide]",81
13,"CN(CCCCN=C=S)C(=O)n1cnc(-c2ccccc2)c1 [Compound 49, N-(4-isothiocyanatobutyl)-N-methyl-4-phenyl-1H-imidazole-1-carboxamide]",25
14,CN(C)C(=O)n1nnc(Cc2ccc(Cl)cc2)n1 [Compound 21a],93
15,CN(C)C(=O)n1nnnc1Cc1ccc(I)cc1 [Compound 18b],86
16,"CN(C)C(=O)n1nnc(Cc2ccccc2)n1 [Compound 34, 5-benzyl-N,N-dimethyl-2H-tetrazole-2-carboxamide]",91

# Same assay, conditions: 1000 nM inhibitor; AAMCA substrate; screening assay
row,Structure (SMILES),inhibition at 1 µM [%]
1,CC(=O)Nc1ccc(Cc2nnnn2C(=O)N(C)C)cc1 [Compound 25b],88
2,"CN(CCCCN=[N+]=[N-])C(=O)n1cnc(-c2ccccc2)c1 [Compound 48, N-(4-azidobutyl)-N-methyl-4-phenyl-1H-imidazole-1-carboxamide]",90
3,CC(=O)Nc1ccc(Cc2nnn(C(=O)N(C)C)n2)cc1 [Compound 25a],100
4,"CN(C)C(=O)n1nnc(Cc2ccncc2)n1 [Compound 39, N,N-dimethyl-5-(pyridin-4-ylmethyl)-2H-tetrazole-2-carboxamide]",21
5,"CN(CCCCN=C=S)C(=O)n1cnc(-c2ccccc2)c1 [Compound 49, N-(4-isothiocyanatobutyl)-N-methyl-4-phenyl-1H-imidazole-1-carboxamide]",90
6,O=C(N1CCC2(CC1)OCCO2)n1nnc(Cc2ccc(Cl)cc2Cl)n1 [Compound 14],97
7,"CN(C)C(=O)n1cc(Cc2ccccc2)nn1 [Compound 70, 4-benzyl-N,N-dimethyl-1,2,3-triazole-1-carboxamide]",98

# Same assay, conditions: eight-point dose response; AAMCA substrate
row,Structure (SMILES),IC50 [nM]
1,"CN(CCCCN=C=S)C(=O)n1cnc(-c2ccccc2)c1 [Compound 49, N-(4-isothiocyanatobutyl)-N-methyl-4-phenyl-1H-imidazole-1-carboxamide]",42

# From US9271962B2 (NORTHEASTERN UNIVERSITY, priority 2008, dated 2016)
